Measurements: ChEMBL document CHEMBL1770052, “Pharmacophore elucidation for a new series of 2-aryl-pyrazolo-triazolo-pyrimidines as potent human A3 adenosine receptor antagonists” (Bioorg Med Chem Lett, 2011)
pKi: −log10 of the molar value.

Biological target: T1, Adenosine receptor A3 (Homo sapiens, UniProt P0DMS8)
T1 sequence (P0DMS8 whole entry): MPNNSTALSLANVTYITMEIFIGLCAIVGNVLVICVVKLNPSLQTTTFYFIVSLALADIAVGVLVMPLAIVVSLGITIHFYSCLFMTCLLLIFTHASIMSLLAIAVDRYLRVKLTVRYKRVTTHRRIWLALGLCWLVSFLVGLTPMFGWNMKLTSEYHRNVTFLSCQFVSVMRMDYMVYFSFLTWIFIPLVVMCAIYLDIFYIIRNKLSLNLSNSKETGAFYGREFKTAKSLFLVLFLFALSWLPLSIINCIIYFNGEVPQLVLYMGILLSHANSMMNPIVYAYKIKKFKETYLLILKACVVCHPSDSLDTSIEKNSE
Experiment: Antagonist activity at human adenosine A3 receptor
Format: functional

Compound Cn1cc2c(nc(NC(=O)N[n+]3ccccc3)n3nc(-c4ccco4)nc23)n1 has a pKi of 11.00.

Work on O=C(Cc1ccccc1)Nc1nc2nn(CCc3ccccc3)cc2c2nc(-c3ccc(Cl)cc3)nn12 yielded a pKi of 8.07.
